Source: publication PMC10714390, “Quinoline Compounds Targeting the c-Ring of ATP Synthase Inhibit Drug-Resistant Pseudomonas aeruginosa” (ACS Infectious Diseases, 2023)
“And” between values parts separate entries of the source, which are not always exact repeats. Equal values may be shown once.

Experiments:
[1] = tested on: P. aeruginosa (ATCC 9027); test: Antimicrobial susceptibility (broth microdilution), PA 9027; format: cell-based, Pseudomonas aeruginosa; conditions: for MIC: Pseudomonas aeruginosa, ATCC9027, read-out: antibacterial activity (MIC) PA 9027; for antibacterial activity in words, PA 9027: summary of Table 1
Protocol: (§1) The following are general steps, unless otherwise noted. All steps were completed using aseptic techniques. All media and glassware were sterilized via an autoclave at 121 °C for 60 min. All agitation occurred at 160 rpm in a temperature-controlled console shaker (Excella E25) at 37 °C. Full-strength tryptic soy broth (TSB) was made by dissolving 30 g of BD Bacto TSB powder in 1 L of deionized water. Purchased and acquired bacterial strains used were E. coli (ATCC 25922), P. aeruginosa (ATCC 9027), drug-resistant P. aeruginosa from ATCC Panel MP-23 (BAA 2108, BAA 2109, BAA 2110), and P. aeruginosa efflux knockout GKCW120 (PΔ6)[6] provided by Zgurskaya and co-workers at the University of Oklahoma.
(§2) Susceptibility testing was performed in biological triplicate using the broth microdilution method as outlined by the Clinical and Laboratory Standards Institute. […] Briefly, to each well, 1 μL of compound in DMSO, 89 μL of TSB, and 10 μL of bacterial inoculum, grown from a single colony in 10 mL of TSB for 4–6 h, were added. After incubation for 12–15 h at 37 °C, absorbance at 590 nm was read on a Biotek Synergy HTX Multimode plate reader. Data were processed by background subtracting the media absorbance and then normalizing the data to full bacterial growth with the vehicle only. MIC is defined as the lowest concentration of antibiotic or antibiotic/adjuvant combination that achieves ≥85% growth inhibition, which corresponds to no visible growth.
(§3) Initial antibacterial activity screen of compounds 4, 5, and S1-S6
(§4) Compounds 4, 5, and S1-S6 were screened for initial antibiotic activity against a susceptible laboratory strain of EC (designated EC 25922), and non-virulent, biofilm forming strain of PA (designated PA 9027), and PD6 (efflux knockout strain6) at 128 µg/mL in DMSO. Sterilization and Antimicrobial Susceptibility Assay procedures utilized were the same as described in the methods.
(§5) Table S1. Antibacterial activity screening results for compounds 4, 5, and S1-S6 at 128 µg/mL
(§6) Table S1. Antibacterial activity screening results for compounds 4, 5, and S1-S6 at 128 µg/mL.

[2] = tested on: P. aeruginosa efflux knockout GKCW120 (PΔ6); test: Antimicrobial susceptibility (broth microdilution), PΔ6 efflux knockout; format: cell-based, Pseudomonas aeruginosa; conditions: for Antibacterial activity screening result, P∆6: at 128 µg/mL in DMSO; for antibacterial activity (MIC) PΔ6: n = 3, >85% reduction in growth at OD 590 nm; for antibacterial activity in words, PΔ6: summary of Table 1
Protocol: as §1, §2, §3, §4, §5, §6

[3] = biological target: T1, PA ATP synthase cIle65Ala mutant (Pseudomonas aeruginosa, UniProt Q9HT15, I65A); test: NADH-driven ATP synthesis inhibition, DK8/pASH20 cI65A membrane vesicles; format: biochemical; conditions: for IC50: ATP synthesis IC50, DK8/pASH20 cI65A vesicles, cI65A mutant, NADH-driven, luminescence assay; for Hill coefficient of dose response fit, DK8/pASH20 cI65A vesicles: inhibition of ATP synthesis activity
T1 construct: expressed in transfected cells; host or cells: E. coli K-12 DK8 transformed with pASH20 carrying mutated atpE
Protocol: (§7) P. aeruginosa (ATCC 9027) was streaked onto a 10% TSB agar plate and incubated at room temperature for 72 h. A single colony was resuspended in 100 μL of H2O, and 5 μL was used as the DNA template for PCR with Q5 polymerase (NEB) and […] each of forward and reverse primers. Primers were complementary to regions flanking the atp operon and included sequences for HindIII and NdeI restriction sites (see the SI for primer sequences). The resulting 6.9 kbp DNA fragment was digested with HindIII and NdeI and ligated into digested vector pBR322 (New England Biolabs). The resultant pASH20(-i) plasmid contains a partial atpI gene. To complete the atpI gene, the HindII-XhoI fragment of pASH20(-i) was replaced with a synthetic fragment with a complete atpI (Twist Bioscience) to yield pASH20. The sequence of the entire operon was verified by Sanger DNA sequencing through the ligation sites. Subunit c mutations were introduced by exchanging the XhoI-BamHI fragment containing atpE with a synthetic fragment containing mutated atpE (Twist Bioscience).
(§8) Vesicles were prepared from P. aeruginosa and transformed E. coli cells as previously described.[22] Briefly, cells were grown in LB liquid medium at 37 °C with shaking and harvested by centrifugation after 7 h of growth. Cultures of transformant E. coli included 100 μg/mL ampicillin. Cells were disrupted in TMG buffer (50 mM Tris-HCl, MgCl2, 10% (v/v) glycerol, pH 7.5) using an Avestin B15 homogenizer at 19,000 psi. After unbroken cells and debris were cleared by centrifugation at 9000g, inverted vesicles were collected by centrifugation at 193,000g, resuspended in TMG buffer, and stored at −80 °C. Protein concentrations were determined using a modified Lowry assay.[25]
(§9) Continuous ATP synthesis activity of inverted membrane vesicles was measured using a luciferin/luciferase luminescence assay as previously described.[22] Inhibition of ATP synthesis activity by test compounds was determined using an end point assay essentially as previously described.[18],[26] In this assay, the synthesis reaction was initiated by 2.5 mM NADH, proceeded for 10 min, and was stopped with 1% trichloroacetic acid, 2 mM CCCP, and 10 mM EDTA. Samples from each reaction were diluted 500-fold prior to the addition of luciferase since quinoline compounds are known to inhibit luciferase.[27] This dilution was sufficient to minimize inhibition of luciferase (Figure S4). Each replicate set included a positive control containing DMSO with no compound and a negative control containing carbonyl cyanide m-chlorophenyl hydrazone. Luminescence values were corrected for the background by subtracting the negative control and then normalized to the positive control within the same replicate. Dose–response curves were fit using eq 1, where activity is the relative ATP synthesis activity, [I] is the concentration of inhibitor in μg/mL, and n is the Hill coefficient. [drawing 1] 1

[4] = biological target: T2, PA ATP synthase cIle65Phe mutant (Pseudomonas aeruginosa, UniProt Q9HT15, I65F); test: NADH-driven ATP synthesis inhibition, DK8/pASH20 cI65F membrane vesicles; format: biochemical; conditions: for Hill coefficient of dose response fit, DK8/pASH20 cI65F vesicles: inhibition of ATP synthesis activity
T2 construct: expressed in transfected cells; host or cells: E. coli K-12 DK8 transformed with pASH20 carrying mutated atpE
Protocol: as §7, §8, §9

[5] = tested on: PA electron transport chain; test: Electron transport activity (NADH-driven H+ pumping, ACMA quenching), PA vesicles; format: biochemical, Pseudomonas aeruginosa; conditions: for inhibition of PA ETC-driven H+ pumping, in words: 0-64 µg/mL, Figure S2; for Inhibition of the PA electron transport chain IC50: PA vesicles
Protocol: Determination of electron transport activity. In an opaque black 96-well plate, inverted membrane
vesicles from PA or E. coli DK8 pASH20 were added to HMK buffer containing 0.3 µg/mL 9-amino-6-chloro-
2-methoxyacridine (ACMA) and 0-64 µg/mL test compound in DMSO. After measurement of baseline
ACMA fluorescence for 60 s, redox-driven H+ pumping was initiated by addition of NADH to 0.8 mM, and
fluorescence quenching was monitored for 120 s before addition of nigericin to 0.5 µg/mL. Relative
activity is reported as the minimum fluorescence value normalized to the maximum fluorescence value
following addition of nigericin. […]

[6] = Solubility in DMSO; format: physicochemical

## CSc1nc2ccccc2cc1CNCc1ccc(CN(C)C)cc1 [Compound 4, N,N-Dimethyl-1-(4-((((2-(methylthio)quinolin-3-yl)methyl)amino)methyl)phenyl)methanamine]
[1]
  MIC: > 256 µg/mL
  antibacterial activity in words, PA 9027: inactive
[2]
  Antibacterial activity screening result, P∆6: I
  antibacterial activity (MIC) PΔ6: 64 to 128 µg/mL
  antibacterial activity in words, PΔ6: weakly inhibit
[3]
  IC50: 59.5 µM and 59.7 µM
  Hill coefficient of dose response fit, DK8/pASH20 cI65A vesicles: 1.2
[4]
  IC50: 12.8 µM
  Hill coefficient of dose response fit, DK8/pASH20 cI65F vesicles: 1.4
[4]; ATP synthesis inhibition, DK8/pASH20 vesicles
  fold reduction in IC50, cIle65Phe mutant relative to wild type: greater than 6 fold
[5]
  inhibition of PA ETC-driven H+ pumping, in words: some inhibition
  Inhibition of the PA electron transport chain IC50: 29 µg/mL
[6]; at 128 μg/mL
  solubility in dimethyl sulfoxide (DMSO): very soluble
[6]; at 256 μg/mL
  solubility in dimethyl sulfoxide (DMSO): fully soluble

## CN(C)Cc1ccc(CNCc2cc3ccccc3nc2SCc2ccccc2)cc1 [Compound 5, 1-(4-((((2-(Benzylthio)quinolin-3-yl)methyl)amino)methyl)phenyl)-N,N-dimethylmethanamine]
[1]
  MIC: > 128 µg/mL
  antibacterial activity in words, PA 9027: inactive
[2]
  Antibacterial activity screening result, P∆6: I
  antibacterial activity (MIC) PΔ6: 16 µg/mL
  antibacterial activity in words, PΔ6: more potent
[3]
  IC50: 13.3 µM
  Hill coefficient of dose response fit, DK8/pASH20 cI65A vesicles: 1.7
[4]
  IC50: 8.18 µM
  Hill coefficient of dose response fit, DK8/pASH20 cI65F vesicles: 1.8
[5]
  inhibition of PA ETC-driven H+ pumping, in words: some inhibition
  Inhibition of the PA electron transport chain IC50: 27 µg/mL
[6]; at 128 μg/mL
  solubility in dimethyl sulfoxide (DMSO): very soluble
[6]; at 256 μg/mL
  solubility in dimethyl sulfoxide (DMSO): partially soluble
